Experimental data as given in publication PMC10537105, “Derivatives Incorporating Acridine, Pyrrole, and Thiazolidine Rings as Promising Antitumor Agents” (Molecules, 2023).

Legend:
[1] = test system: COS-7; test: MTT assay, COS-7 normal cells; format: cell-based, monkey; conditions: Primates, COS-7, 72 h of incubation, normal cell line, read-out: IC50 values ± SD, COS-7
From the text: (§1) The impact of acridine spiro derivatives 6–10 (Figure 13) on the metabolic activity of various tumor cell lines HCT-116 (human colorectal carcinoma), Jurkat (human leukemia cells), HeLa (human cervical adenocarcinoma), MDA-MB-231, and MCF-7 (human breast adenocarcinoma), and normal cell lines COS-7 (monkey kidney cells) and BJ-5ta (skin fibroblasts) was investigated using the MTT assay. This assay measures the conversion of yellow 3-(4,5-dimethylthiazol-2-yl)-2,5-diphenyltetrazolium bromide (MTT) to insoluble purple formazan by metabolically active cells. The antiproliferative activities of the tested compounds were determined based on the results from the MTT assay, and the inhibitory concentration values (IC50) are presented in Table 5.
(§2) The human cancer cell lines employed in this study were sourced from reputable institutions, including the American Type Culture Collection (ATCC; Manassas, VA, USA) and the European Collection of Authenticated Cell Cultures (ECACC, Salisbury, UK). Specifically, HeLa (93021013, human cervical adenocarcinoma), HCT116 (CCL-247TM, human colorectal carcinoma), and Jurkat (88042803, human leukemic T-cell lymphoma) were cultured in RPMI 1640 medium (Biosera, Kansas City, MO, USA). In contrast, MCF-7 (HTB-22TM, human breast adenocarcinoma, ER+), MDA-MB-231 (HTB-26TM, human breast adenocarcinoma, ER−), and COS-7 (CRL-1651TM, kidney fibroblasts) were nurtured in high-glucose Dulbecco’s Modified Eagle Medium (DMEM) supplemented with sodium pyruvate (Biosera). Furthermore, BJ-5ta (CRL-4001TM, human dermal fibroblasts) was cultured in a composite medium of high-glucose DMEM and M199 (4:1) (Biosera), supplemented with Hygromycin B (0.01 mg/mL; Merck, Darmstadt, Germany). All culture media were enriched with a 10% fetal bovine serum (FBS; Gibco, Thermo Scientific, Rockford, IL, USA) and an antibiotic/antimycotic solution (Merck) to ensure optimal growth conditions. The cells were meticulously maintained within a humidified environment containing 5% CO2 at 37 °C. Regular screenings for mycoplasma contamination were conducted using Hoechst 33342 staining (Merck), confirming the integrity of the cell lines.
(§3) To assess the antiproliferative impact of the synthesized compounds 6–10, their half-maximal inhibitory concentration (IC50) and the MTT colorimetric assay were employed. MDA-MB-231 and MCF-7 cells were seeded into 96-well microplates (SARSTEDT, Nümbrecht, Germany) at a density of 5 × 10^3 cells per well. After 24 h of cell seeding, various concentrations (100, 50, and 10 µmol/L) of acridine derivatives 6–10 were introduced, alongside cisplatin (utilized as a reference) at concentrations of 5, 10, 20, 50, and 100 µmol/L. Subsequent to 24, 48, and 72 h of treatment, the cells in each well underwent incubation with MTT (5 mg/mL, Sigma-Aldrich Chemie, Steinheim, Germany) for 4 h at 37 °C in the dark. During this period, mitochondrial oxidoreductases metabolized MTT, forming insoluble formazan. Following this, 100 µL of SDS (10% […]) was added to dissolve the formazan crystals, and the cells were incubated for an additional 12 h. Absorbance at 540 nm was measured using the automated Cytation™ 3 Cell Imaging Multi-Mode Reader (Biotek, Winooski, VT, USA). Each test was performed in triplicate, and three independent experiments were conducted to ensure precision and reliability.

[2] = test system: MDA-MB-231; test: MTT assay, MDA-MB-231 cells; format: cell-based, human; conditions: Homo sapiens, MDA-MB-231, 72 h of incubation, read-out: IC50 values ± SD, MDA-MB-231
From the text: as §1, §2, §3

[3] = test system: Jurkat; test: MTT assay, Jurkat cells; format: cell-based, human; conditions: Homo sapiens, Jurkat; MTT, 72 h of incubation; read-out: IC50 values ± SD, Jurkat
From the text: as §1, §2, §3

[4] = test system: HeLa; test: MTT assay, HeLa cells; format: cell-based, human; conditions: Homo sapiens, HeLa, 72 h of incubation, read-out: IC50 values ± SD, HeLa
From the text: as §1, §2, §3

[5] = test system: HCT-116; test: MTT assay, HCT-116 cells; format: cell-based, human; conditions: Homo sapiens, HCT-116; MTT, 72 h of incubation; read-out: IC50 values ± SD, HCT-116
From the text: as §1, §2, §3

[6] = test system: MCF-7; test: MTT assay, MCF-7 cells; format: cell-based, human; conditions: Homo sapiens, MCF7, 72 h of incubation, read-out: IC50 values ± SD, MCF-7
From the text: as §1, §2, §3

[7] = test system: BJ-5ta; test: MTT assay, BJ-5ta normal fibroblasts; format: cell-based, human; conditions: Homo sapiens, Fibroblast, 72 h of incubation, normal cell line, read-out: IC50 values ± SD, BJ-5ta
From the text: as §1, §2, §3

Row | Compound | melting point | IC50 [1] | IC50 [2] | IC50 [3] | IC50 [4] | IC50 [5] | IC50 [6] | IC50 [7]
1 | COc1ccc(N2C(=O)C(C)S/C2=N\N2C(=O)C(C#N)=CC23c2ccccc2Nc2ccccc23)cc1 (stereo not drawn) [9b, 1′-{[(2Z)-3-(4-Methoxyphenyl)-5-methyl-4-oxo-1,3-thiazolidin-2-ylidene]amino}-5′-oxo-1′,5′-dihydro-10H-spiro[acridine-9,2′-pyrrole]-4′-carbonitrile] | 219 to 224 °C (dec.) | > 100 µM | > 100 µM | > 100 µM | > 100 µM | > 100 µM | > 100 µM | > 100 µM
2 | COc1cccc(N2C(=O)C(C)S/C2=N\N2C(=O)C(C#N)=CC23c2ccccc2Nc2ccccc23)c1 (stereo not drawn) [9c, 1′-{[(2Z)-3-(3-Methoxyphenyl)-5-methyl-4-oxo-1,3-thiazolidin-2-ylidene]amino}-5′-oxo-1′,5′-dihydro-10H-spiro[acridine-9,2′-pyrrole]-4′-carbonitrile] | 237 to 240 °C (dec.) | > 100 µM | 40.8 ± 0.84 µM | 25.8 ± 2.58 µM | 44 ± 5.88 µM | 32.7 ± 1.51 µM | 65.3 ± 1.89 µM | 32.7 ± 0.47 µM
3 | CC1S/C(=N\N2C(=O)C(C#N)=CC23c2ccccc2Nc2ccccc23)N(c2ccc(F)cc2)C1=O (stereo not drawn) [9d, 1′-{[(2Z)-3-(4-Fluorophenyl)-5-methyl-4-oxo-1,3-thiazolidin-2-ylidene]amino}-5′-oxo-1′,5′-dihydro-10H-spiro[acridine-9,2′-pyrrole]-4′-carbonitrile] | 235 to 239 °C (dec.) | > 100 µM | > 100 µM | > 100 µM | > 100 µM | > 100 µM | > 100 µM | > 100 µM
4 | CC1S/C(=N\N2C(=O)C(C#N)=CC23c2ccccc2Nc2ccccc23)N(c2ccc([N+](=O)[O-])cc2)C1=O (stereo not drawn) [9e, 1′-{[(2Z)-5-Methyl-3-(4-nitrophenyl)-4-oxo-1,3-thiazolidin-2-ylidene]amino}-5′-oxo-1′,5′-dihydro-10H-spiro[acridine-9,2′-pyrrole]-4′-carbonitrile] | 170 to 173 °C (dec.) | > 100 µM | > 100 µM | 34.4 ± 2.13 µM | > 100 µM | > 100 µM | > 100 µM | > 100 µM
5 | CCCC1S/C(=N\N2C(=O)C(C#N)=CC23c2ccccc2Nc2ccccc23)N(c2ccccc2)C1=O (stereo not drawn) [10a, 5′-Oxo-1′-{[(2Z)-4-oxo-3-phenyl-5-propyl-1,3-thiazolidin-2-ylidene]amino}-1′,5′-dihydro-10H-spiro[acridine-9,2′-pyrrole]-4′-carbonitrile] | 238 to 240 °C (dec.) | > 100 µM | > 100 µM | > 100 µM | > 100 µM | > 100 µM | > 100 µM | > 100 µM
6 | CCCC1S/C(=N\N2C(=O)C(C#N)=CC23c2ccccc2Nc2ccccc23)N(c2ccc(OC)cc2)C1=O (stereo not drawn) [10b, 1′-{[(2Z)-3-(4-Methoxyphenyl)-4-oxo-5-propyl-1,3-thiazolidin-2-ylidene]amino}-5′-oxo-1′,5′-dihydro-10H-spiro[acridine-9,2′-pyrrole]-4′-carbonitrile] | 247 to 250 °C (dec.) | > 100 µM | > 100 µM | > 100 µM | > 100 µM | > 100 µM | > 100 µM | > 100 µM
7 | CCCC1S/C(=N\N2C(=O)C(C#N)=CC23c2ccccc2Nc2ccccc23)N(c2cccc(OC)c2)C1=O (stereo not drawn) [10c, 1′-{[(2Z)-3-(3-Methoxyphenyl)-4-oxo-5-propyl-1,3-thiazolidin-2-ylidene]amino}-5′-oxo-1′,5′-dihydro-10H-spiro[acridine-9,2′-pyrrole]-4′-carbonitrile] | 229 to 231 °C (dec.) | > 100 µM | > 100 µM | > 100 µM | > 100 µM | > 100 µM | > 100 µM | > 100 µM
8 | CCCC1S/C(=N\N2C(=O)C(C#N)=CC23c2ccccc2Nc2ccccc23)N(c2ccc(F)cc2)C1=O (stereo not drawn) [10d, 1′-{[(2Z)-3-(4-Fluorophenyl)-4-oxo-5-propyl-1,3-thiazolidin-2-ylidene]amino}-5′-oxo-1′,5′-dihydro-10H-spiro[acridine-9,2′-pyrrole]-4′-carbonitrile] | 230 to 232 °C (dec.) | > 100 µM | > 100 µM | > 100 µM | > 100 µM | > 100 µM | > 100 µM | > 100 µM
9 | CCCC1S/C(=N\N2C(=O)C(C#N)=CC23c2ccccc2Nc2ccccc23)N(c2ccc([N+](=O)[O-])cc2)C1=O (stereo not drawn) [10e, 1′-{[(2Z)-3-(4-Nitrophenyl)-4-oxo-5-propyl-1,3-thiazolidin-2-ylidene]amino}-5′-oxo-1′,5′-dihydro-10H-spiro[acridine-9,2′-pyrrole]-4′-carbonitrile] | 249 to 251 °C (dec.) | > 100 µM | > 100 µM | > 100 µM | > 100 µM | > 100 µM | 91.3 ± 3.74 µM | > 100 µM
